In ChEMBL document CHEMBL4038272, “Synthesis and biological evaluation of novel podophyllotoxin-NSAIDs conjugates as multifunctional anti-MDR agents against resistant human hepatocellular carcinoma Bel-7402/5-FU cells” (Eur J Med Chem, 2017):
Activity calls are given as the source filed them. The rule behind the calls is not given here.

How the values were obtained:
L02 = assay: Antiproliferative activity against human LO2 cells after 72 hrs by CCK-8 assay; assay type: cell-based; conditions: L02, 72 h
Bel7402/5-FU [1] = assay: Antiproliferative activity against human Bel7402/5-FU cells after 72 hrs by CCK-8 assay; assay type: functional, cell-based
Bel-7402 = assay: Antiproliferative activity against human Bel7402 cells after 72 hrs by CCK-8 assay; assay type: functional, cell-based; conditions: Bel-7402, 72 h
Bel7402/5-FU [2] = assay: Induction of apoptosis in human Bel7402/5-FU cells assessed as late apoptotic cells at 0.1 uM after 48 hrs by Annexin V-APC/7-AAD staining based flow cytometry (reference value: 3%); assay type: functional
Bel7402/5-FU [3] = assay: Induction of apoptosis in human Bel7402/5-FU cells assessed as ratio of cleaved caspase-9 to beta-actin level at 0.1 uM after 48 hrs by Western blot analysis (reference value: 0.17); assay type: functional
Bel7402/5-FU [4] = assay: Effect on P-gp expression in human Bel7402/5-FU cells assessed as ratio of P-gp to beta-actin level at 0.1 uM after 48 hrs by Western blot analysis (reference value: 0.59); assay type: functional
Bel7402/5-FU [5] = assay: Induction of apoptosis in human Bel7402/5-FU cells at 0.1 uM after 24 hrs by Hoechst 33342 staining based fluorescent microscopic method; assay type: functional, cell-based
[6] = target: Mitogen-activated protein kinase; ERK1/ERK2 (Homo sapiens) (UniProt P27361+P28482); assay: Effect on ERK1/2 phosphorylation in human Bel7402/5-FU cells assessed as ratio of phosphorylated ERK1/2 to beta-actin level at 0.1 uM after 48 hrs by Western blot analysis (reference value: 0.59); assay type: cell-based
Mitogen-activated protein kinase; ERK1/ERK2 (Homo sapiens), sequence (P27361 whole entry, looked up): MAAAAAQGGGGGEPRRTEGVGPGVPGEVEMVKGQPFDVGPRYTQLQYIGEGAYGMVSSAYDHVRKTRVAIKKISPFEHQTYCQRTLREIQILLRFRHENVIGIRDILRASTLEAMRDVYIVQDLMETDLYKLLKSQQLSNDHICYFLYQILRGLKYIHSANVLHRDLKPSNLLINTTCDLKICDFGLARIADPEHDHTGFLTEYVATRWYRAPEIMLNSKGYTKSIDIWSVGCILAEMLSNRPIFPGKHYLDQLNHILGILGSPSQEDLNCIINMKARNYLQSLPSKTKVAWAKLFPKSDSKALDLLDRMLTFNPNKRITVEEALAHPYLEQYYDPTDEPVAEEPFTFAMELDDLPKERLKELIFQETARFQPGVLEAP
Mitogen-activated protein kinase; ERK1/ERK2 (Homo sapiens), sequence (P28482 whole entry, looked up): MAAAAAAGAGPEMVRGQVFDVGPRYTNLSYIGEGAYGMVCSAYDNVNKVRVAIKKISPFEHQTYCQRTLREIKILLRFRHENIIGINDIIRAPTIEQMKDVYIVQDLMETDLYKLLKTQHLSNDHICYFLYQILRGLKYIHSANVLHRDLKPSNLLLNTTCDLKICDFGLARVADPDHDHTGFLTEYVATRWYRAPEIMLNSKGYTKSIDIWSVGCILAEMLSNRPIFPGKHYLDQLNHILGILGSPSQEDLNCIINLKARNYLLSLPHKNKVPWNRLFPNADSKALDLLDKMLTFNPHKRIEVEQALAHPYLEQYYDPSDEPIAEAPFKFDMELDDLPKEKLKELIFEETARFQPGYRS

Bel7402/5-FU [7] = assay: Induction of apoptosis in human Bel7402/5-FU cells assessed as morphological changes at 0.1 uM after 24 hrs by Hoechst 33342 staining based fluorescent microscopic method; assay type: functional, cell-based
Bel7402/5-FU [8] = assay: Induction of apoptosis in human Bel7402/5-FU cells assessed as early apoptotic cells at 0.1 uM after 48 hrs by Annexin V-APC/7-AAD staining based flow cytometry (reference value: 5.24%); assay type: functional
Bel7402/5-FU [9] = assay: Induction of apoptosis in human Bel7402/5-FU cells assessed as live cells at 0.1 uM after 48 hrs by Annexin V-APC/7-AAD staining based flow cytometry (reference value: 91.08%); assay type: functional
Bel7402/5-FU [10] = assay: Effect on CDK2 expression in human Bel7402/5-FU cells assessed as ratio of CDK2 to beta-actin level at 0.1 uM after 48 hrs by Western blot analysis (reference value: 0.43); assay type: functional
Bel7402/5-FU [11] = assay: Induction of apoptosis in human Bel7402/5-FU cells assessed as ratio of cleaved PARP to beta-actin level at 0.1 uM after 48 hrs by Western blot analysis (reference value: 0.2); assay type: functional
Bel7402/5-FU [12] = assay: Induction of apoptosis in human Bel7402/5-FU cells assessed as ratio of cleaved caspase-3 to beta-actin level at 0.1 uM after 48 hrs by Western blot analysis (reference value: 0.19); assay type: functional
Bel7402/5-FU [13] = assay: Effect on COX1 expression in human Bel7402/5-FU cells assessed as ratio of COX1 to beta-actin level at 0.1 uM after 48 hrs by Western blot analysis (reference value: 0.48); assay type: functional
[14] = Resistant factor, ratio of IC50 for human Bel7402/5-FU cells to IC50 for human Bel7402 cells; assay type: functional
[15] = target: RAC-alpha serine/threonine-protein kinase (Homo sapiens) (UniProt P31749); assay: Effect on AKT phosphorylation in human Bel7402/5-FU cells assessed as ratio of phosphorylated AKT to beta-actin level at 0.1 uM after 48 hrs by Western blot analysis (reference value: 0.39); assay type: cell-based
RAC-alpha serine/threonine-protein kinase (Homo sapiens), sequence (P31749 whole entry): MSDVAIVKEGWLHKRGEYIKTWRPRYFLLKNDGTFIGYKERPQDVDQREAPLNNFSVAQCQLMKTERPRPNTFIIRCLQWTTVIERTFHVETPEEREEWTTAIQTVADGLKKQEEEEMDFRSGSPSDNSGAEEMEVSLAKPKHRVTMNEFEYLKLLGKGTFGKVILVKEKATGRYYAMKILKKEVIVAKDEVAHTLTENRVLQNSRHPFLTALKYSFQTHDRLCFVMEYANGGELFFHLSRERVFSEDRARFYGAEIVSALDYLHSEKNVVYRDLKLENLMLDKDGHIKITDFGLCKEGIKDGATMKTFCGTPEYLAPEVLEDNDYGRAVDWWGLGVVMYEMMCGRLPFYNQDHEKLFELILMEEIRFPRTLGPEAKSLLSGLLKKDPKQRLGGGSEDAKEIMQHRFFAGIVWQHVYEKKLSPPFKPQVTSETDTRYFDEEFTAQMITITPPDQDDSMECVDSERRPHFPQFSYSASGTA

Bel7402/5-FU [16] = assay: Effect on MRP1 expression in human Bel7402/5-FU cells assessed as ratio of MRP1 to beta-actin level at 0.1 uM after 48 hrs by Western blot analysis (reference value: 0.58); assay type: functional
Bel7402/5-FU [17] = assay: Cell cycle arrest in human Bel7402/5-FU cells assessed as accumulation at G1 phase at 0.1 uM after 48 hrs by propidium iodide staining based flow cytometry (reference value: 52.21%); assay type: functional
Bel7402/5-FU [18] = assay: Cell cycle arrest in human Bel7402/5-FU cells assessed as accumulation at G2 phase at 0.1 uM after 48 hrs by propidium iodide staining based flow cytometry (reference value: 35.16%); assay type: functional
Bel7402/5-FU [19] = assay: Reduction in microtubule density in human Bel7402/5-FU cells at 0.1 uM after 24 to 48 hrs by DAPI staining based immunofluorescence microscopic method; assay type: functional, cell-based
Bel7402/5-FU [20] = assay: Induction of microtubule disruption in human Bel7402/5-FU cells at 0.1 uM after 24 to 48 hrs by DAPI staining based immunofluorescence microscopic method; assay type: functional, cell-based
Bel7402/5-FU [21] = assay: Induction of apoptosis in human Bel7402/5-FU cells assessed as ratio of cleaved caspase-8 to beta-actin level at 0.1 uM after 48 hrs by Western blot analysis (reference value: 0.17); assay type: functional
Bel7402/5-FU [22] = assay: Effect on cyclinA expression in human Bel7402/5-FU cells assessed as ratio of cyclinA to beta-actin level at 0.1 uM after 48 hrs by Western blot analysis (reference value: 0.39); assay type: functional
Bel7402/5-FU [23] = assay: Cell cycle arrest in human Bel7402/5-FU cells assessed as accumulation at S phase at 0.1 uM after 48 hrs by propidium iodide staining based flow cytometry (reference value: 12.62%); assay type: functional
Bel7402/5-FU [24] = assay: Induction of apoptosis in human Bel7402/5-FU cells assessed as reduction in cell number at 0.1 uM after 24 hrs by Hoechst 33342 staining based fluorescent microscopic method; assay type: functional
Bel7402/5-FU [25] = assay: Antimigratory activity in human Bel7402/5-FU cells at 0.1 uM after 24 hrs by wound healing assay; assay type: functional, cell-based
Bel7402/5-FU [26] = assay: Induction of apoptosis in human Bel7402/5-FU cells assessed as necrotic cells at 0.1 uM after 48 hrs by Annexin V-APC/7-AAD staining based flow cytometry (reference value: 0.58%); assay type: functional
Bel7402/5-FU [27] = assay: Effect on iNOS expression in human Bel7402/5-FU cells assessed as ratio of iNOS to beta-actin level at 0.1 uM after 48 hrs by Western blot analysis (reference value: 0.13); assay type: functional
Bel7402/5-FU [28] = assay: Effect on CDK1 expression in human Bel7402/5-FU cells assessed as ratio of CDK1 to beta-actin level at 0.1 uM after 48 hrs by Western blot analysis (reference value: 0.33); assay type: functional
Bel7402/5-FU [29] = assay: Effect on cyclinB1 expression in human Bel7402/5-FU cells assessed as ratio of cyclinB1 to beta-actin level at 0.1 uM after 48 hrs by Western blot analysis (reference value: 0.53); assay type: functional
Bel7402/5-FU [30] = assay: Induction of apoptosis in human Bel7402/5-FU cells assessed as condensed nuclei at 0.1 uM after 24 hrs by Hoechst 33342 staining based fluorescent microscopic method; assay type: functional, cell-based
[31] = target: Signal transducer and activator of transcription 3 (Homo sapiens) (UniProt P40763); assay: Effect on STAT3 phosphorylation in human Bel7402/5-FU cells assessed as ratio of phosphorylated STAT3 to beta-actin level at 0.1 uM after 48 hrs by Western blot analysis (reference value: 0.3); assay type: cell-based
Signal transducer and activator of transcription 3 (Homo sapiens), sequence (P40763 whole entry): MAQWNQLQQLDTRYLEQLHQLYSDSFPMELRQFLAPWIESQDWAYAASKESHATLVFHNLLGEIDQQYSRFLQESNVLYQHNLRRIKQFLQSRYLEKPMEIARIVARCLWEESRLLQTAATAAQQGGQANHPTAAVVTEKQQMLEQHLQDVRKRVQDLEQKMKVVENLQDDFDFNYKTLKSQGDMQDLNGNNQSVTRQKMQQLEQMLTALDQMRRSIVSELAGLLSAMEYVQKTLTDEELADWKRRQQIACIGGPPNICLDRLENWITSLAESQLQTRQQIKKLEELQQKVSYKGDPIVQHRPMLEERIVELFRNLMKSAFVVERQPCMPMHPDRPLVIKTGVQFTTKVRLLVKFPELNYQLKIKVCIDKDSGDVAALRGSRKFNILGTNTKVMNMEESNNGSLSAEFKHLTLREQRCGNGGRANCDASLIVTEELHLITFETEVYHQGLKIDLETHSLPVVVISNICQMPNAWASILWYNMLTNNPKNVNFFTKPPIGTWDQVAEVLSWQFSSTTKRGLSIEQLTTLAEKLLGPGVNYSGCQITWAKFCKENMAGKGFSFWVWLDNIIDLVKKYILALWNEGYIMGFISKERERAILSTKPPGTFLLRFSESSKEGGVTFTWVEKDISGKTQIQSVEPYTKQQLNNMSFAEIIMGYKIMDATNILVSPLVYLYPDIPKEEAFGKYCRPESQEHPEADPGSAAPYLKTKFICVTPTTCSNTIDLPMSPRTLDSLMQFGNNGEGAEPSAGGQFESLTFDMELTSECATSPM

Bel7402/5-FU [32] = assay: Effect on VEGFR2 expression in human Bel7402/5-FU cells assessed as ratio of VEGFR2 to beta-actin level at 0.1 uM after 48 hrs by Western blot analysis (reference value: 0.25); assay type: functional
Bel7402/5-FU [33] = assay: Effect on E-cadherin expression in human Bel7402/5-FU cells assessed as ratio of E-cadherin to beta-actin level at 0.1 uM after 48 hrs by Western blot analysis (reference value: 0.2); assay type: functional
Bel7402/5-FU [34] = assay: Effect on MMP2 expression in human Bel7402/5-FU cells assessed as ratio of MMP2 to beta-actin level at 0.1 uM after 48 hrs by Western blot analysis (reference value: 0.3); assay type: functional
Bel7402/5-FU [35] = assay: Effect on COX2 expression in human Bel7402/5-FU cells assessed as ratio of COX2 to beta-actin level at 0.1 uM after 48 hrs by Western blot analysis (reference value: 0.36); assay type: functional

## COc1ccc2c(c1)c(CC(=O)O)c(C)n2C(=O)c1ccc(Cl)cc1 [INDOMETHACIN]
L02
  IC50: > 100 µM
Bel7402/5-FU [1]
  IC50: > 100 µM
Bel-7402
  IC50: > 100 µM

## CC(=O)Oc1ccccc1C(=O)O [ASPIRIN]
L02
  IC50: > 100 µM
Bel7402/5-FU [1]
  IC50: > 100 µM
Bel-7402
  IC50: > 100 µM

## COc1cc([C@@H]2c3cc4c(cc3[C@H](OC(=O)c3ccccc3OC(C)=O)[C@H]3COC(=O)[C@H]23)OCO4)cc(OC)c1OC
Bel7402/5-FU [2]
  Activity: 24.2%
Bel7402/5-FU [3]
  Ratio: 0.57
Bel7402/5-FU [4]
  Ratio: 0.52
Bel7402/5-FU [5]
  Activity: Active
L02
  IC50: 0.09 µM
[6]
  Ratio: 0.19
Bel7402/5-FU [7]
  Activity: Active
Bel7402/5-FU [8]
  Activity: 5.45%
Bel7402/5-FU [9]
  Activity: 65.12%
Bel7402/5-FU [10]
  Ratio: 0.39
Bel7402/5-FU [1]
  IC50: 0.065 µM
Bel7402/5-FU [11]
  Ratio: 0.47
Bel7402/5-FU [12]
  Ratio: 0.53
Bel7402/5-FU [13]
  Ratio: 0.31
[14]
  Ratio IC50: 0.32
[15]
  Ratio: 0.29
Bel7402/5-FU [16]
  Ratio: 0.31
Bel7402/5-FU [17]
  Activity: 17.03%
Bel7402/5-FU [18]
  Activity: 58.28%
Bel7402/5-FU [19]
  Activity: Active
Bel7402/5-FU [20]
  Activity: Active
Bel7402/5-FU [21]
  Ratio: 0.57
Bel7402/5-FU [22]
  Ratio: 0.2
Bel7402/5-FU [23]
  Activity: 24.69%
Bel7402/5-FU [24]
  Activity: Active
Bel-7402
  IC50: 0.199 µM
Bel7402/5-FU [25]
  Activity: Active
Bel7402/5-FU [26]
  Activity: 5.23%
Bel7402/5-FU [27]
  Ratio: 0.16
Bel7402/5-FU [28]
  Ratio: 0.28
Bel7402/5-FU [29]
  Ratio: 0.09
Bel7402/5-FU [30]
  Activity: Active
[31]
  Ratio: 0.17
Bel7402/5-FU [32]
  Ratio: 0.1
Bel7402/5-FU [33]
  Ratio: 0.31
Bel7402/5-FU [34]
  Ratio: 0.16
Bel7402/5-FU [35]
  Ratio: 0.14

## O=c1[nH]cc(F)c(=O)[nH]1 [FLUOROURACIL]
L02
  IC50: 32.5 µM
Bel7402/5-FU [1]
  IC50: > 100 µM
[14]
  Ratio IC50: >16.83
Bel-7402
  IC50: 5.94 µM

## CC(C)Cc1ccc(C(C)C(=O)O)cc1 (stereo not given) [IBUPROFEN]
L02
  IC50: > 100 µM
Bel7402/5-FU [1]
  IC50: > 100 µM
Bel-7402
  IC50: > 100 µM
